# Earlier results, collected in patent US20150250887A1, “METHOD OF PREPARING RESIN TINCTURES” (JALEVA PHARMACEUTICALS, LLC, priority 2012, published 2015).
# System: not given
# Details: pH 7.4
row,SMILES,log D
1,CN1CCCC1c1cccnc1 (stereo not shown) [nicotine],−0.62
2,C[C@]12CC[C@H]3[C@@H](CCC4=CC(=O)CC[C@@]43C)[C@@H]1CC[C@@H]2O [testosterone],3.18

# Same assay, conditions: pH about 7.4
row,SMILES,log D
1,O=C(O)Cc1ccccc1Nc1c(Cl)cccc1Cl [diclofenac],1.44
2,CNS(=O)(=O)CCc1ccc2[nH]cc(C3CCN(C)CC3)c2c1 [naratriptan],−0.85
3,Cc1nccn1CC1CCc2c(c3ccccc3n2C)C1=O (stereo not shown) [ondansetron],1.2
4,CCCc1nn(C)c2c(=O)[nH]c(-c3cc(S(=O)(=O)N4CCN(C)CC4)ccc3OCC)nc12 [sildenafil],2.26
5,CC1=C(/C=C/C(C)=C/C=C/C(C)=C/C(=O)O)C(C)(C)CCC1 [tretinoin],4.19
6,CCCc1nc(C)c2c(=O)[nH]c(-c3cc(S(=O)(=O)N4CCN(CC)CC4)ccc3OCC)nn12 [vardenafil],3.71

# System: skin
# Details: not given
row,SMILES,skin irritant properties
1,CC(=O)O.CC(=O)O.NC(=N\CCCCCC/N=C(N)/N=C(\N)Nc1ccc(Cl)cc1)/N=C(\N)Nc1ccc(Cl)cc1 [chlorhexidine acetate],strong skin irritant
2,N=C(NCCCCCCNC(=N)NC(=N)Nc1ccc(Cl)cc1)NC(=N)Nc1ccc(Cl)cc1.O=C(O)[C@H](O)[C@@H](O)[C@H](O)[C@H](O)CO.O=C(O)[C@H](O)[C@@H](O)[C@H](O)[C@H](O)CO [chlorhexidine gluconate],does not exhibit as strong irritant properties
